The test system of data set [1] is NCI-H1264. The data set can be described thus: 125I-AM binding to NCI-H1264 cells. Also noted: species or system human. The conditions noted are these: 0.2 nM per 5×10^5 cells; NCI-H1264 positive control. From the text:
(§1) A similar mechanism has been described for amylin (R. A. Pittner et al., J. Cell. Biochem. 55S, 19 (1994)).

Data set [2] has as its system RINm cells. The data set can be described thus: 125I-AM binding to RINm cells. The conditions noted are these: 0.2 nM per 5×10^5 cells.
Excerpt: as §1

Data set [3] deals with E. coli. Briefly: Macrodilution assay, E. coli. Format: cell-based, Escherichia coli. The conditions noted are these: for antimicrobial activity, macrodilution, 6 hours: 6 hours incubation. The protocol:
(§2) Data were compiled from six experiments. Macrodilution assays were performed in 12×75 mm borosilicate glass tubes. Organisms were grown and harvested, as described in Roilides, E., et al., J Infect Dis. 163:579 (1991), and adjusted to a final inoculum concentration of 8×10^3 cfu/ml in 400 μl. […] Tubes were incubated at 37° C. with gentle agitation over 24 hours. At 6 and 24 hour time points, 100 μl aliquots from each tube were quantitatively cultured by serial 100-fold dilutions onto TSA and SDA plates.

Data set [4] deals with C. albicans. Briefly: Micro-/macrodilutional assay, C. albicans. Format: cell-based, Candida albicans. On the procedure:
(§3) Inhibition of growth of E. coli was assessed in a microdilutional timed kill assay. (See FIG. 22) Bacteria and Candida albicans were grown overnight on trypticase soy agar (TSA) and Sobouraud dextrose agar (SDA) plates, respectively, were suspended into RPMI-1640 medium (Bio-Whittaker) and adjusted to a final concentration of 8×10^3 cfu/ml in […] in plastic microdilution trays. […] Plates were incubated at 37° C. with gentle agitation over 24 hours. At 6 hr and 24 hr time points, 10 to […] aliquots from each well were quantitatively cultured by serial 100-fold dilutions onto TSA and SDA plates.
as §2

The subject of data set [5] is E. coli. The data set can be described thus: Microdilutional timed kill assay, E. coli. The data set is classed as cell-based, Escherichia coli. The conditions noted are these: for growth inhibitory activity against E. coli, comparative: microdilution, 6 hours, FIG. 22. On the procedure:
(§4) Inhibition of growth of E. coli was assessed in a microdilutional timed kill assay. (See FIG. 22) Bacteria and Candida albicans were grown overnight on trypticase soy agar (TSA) and Sobouraud dextrose agar (SDA) plates, respectively, were suspended into RPMI-1640 medium (Bio-Whittaker) and adjusted to a final concentration of 8×10^3 cfu/ml in […] in plastic microdilution trays. AM-related peptides, magainins, and albumin were added in equimolar concentrations ranging from 8 μM to 300 μM. Plates were incubated at 37° C. with gentle agitation over 24 hours. At 6 hr and 24 hr time points, 10 to […] aliquots from each well were quantitatively cultured by serial 100-fold dilutions onto TSA and SDA plates.

Data set [6] has as its system E. coli, P. aeruginosa, C. albicans, S. aureus. The data set can be described thus: Antimicrobial dilution assays against bacterial and fungal pathogens. The conditions noted are these: microdilutional assay. Format: cell-based. The protocol:
In order to assess the antimicrobial activity of AM and its gene related peptides, both microdilution and macrodilution assays were performed against Escherichia coli (E. coli), Staphylococcus aureus (S. aureus), Pseudomonas aeruginosa (P. aeruginosa) and Candida albicans (C. albicans). A germination assay was also performed in order to further assess anti-candidal activity (Ghannoum, M. A. and Radwan, S. S., Candida Adherence to Epithelial Cells. CRC Press; Boca Raton, Fla. 1990 pp. 72-104).
as §4
The antimicrobial activity of AM and PAMP was determined in a macrodilution assay after 6 hours of incubation of E. coli. […] Data were compiled from six experiments. Macrodilution assays were performed in 12×75 mm borosilicate glass tubes. Organisms were grown and harvested, as described in Roilides, E., et al., J Infect Dis. 163:579 (1991), and adjusted to a final inoculum concentration of 8×10^3 cfu/ml in 400 μl. AM-related peptides, magainins, and albumin were added in equimolar concentrations ranging from 8 μM to 300 μM. Tubes were incubated at 37° C. with gentle agitation over 24 hours. At 6 and 24 hour time points, 100 μl aliquots from each tube were quantitatively cultured by serial 100-fold dilutions onto TSA and SDA plates.

For data set [7], the system named is AM receptors. The data set can be described thus: 125I-AM receptor binding, MCF-7. Also noted: species or system human. The conditions noted are these: MCF-7 as representative cancer line. The protocol: j. Receptor Binding: Receptor binding analysis were performed as previously described (Moody, T. W., et al., Proc. Natl. Acad. Sci. U.S.A. 90:4345-4349 (1993)). Briefly, cells (5×10^4) were placed in 24-well plates coated with fibronectin (20 μg). When a monolayer is formed, the cells were washed 4 times in TIS buffer followed by incubation with receptor binding medium (TIS plus 1% BSA and 1 mg/ml bacitracin). […] After washing the cells 4 times in receptor binding buffer at 4° C., they were dissolved in 0.2 N NaOH and counted on a gamma counter.

Data set [8] relates to AM receptor. The data set can be described thus: cAMP assay (RIA), MCF-7. The conditions noted are these: MCF-7. Format: cell-based, human. On the procedure:
k. cAMP Assays: Cyclic AMP was assayed by RIA using a kit obtained from New England Nuclear (Boston, Mass.). […] The supernatants were tested for cAMP using the RIA kit following the manufacturer's instructions.

Data set [9] deals with P. aeruginosa. Briefly: Micro-/macrodilution timed kill assay, P. aeruginosa. The data set is classed as cell-based, Pseudomonas aeruginosa. The conditions noted are these: 24 hours exposure compared with 6 hours incubation. The protocol: as §3, §2
Data set [10] concerns rat mast cells. The conditions noted are these: compared with magainin-2 / AM.
In data set [11] the test system is S. aureus. Briefly: Micro-/macrodilutional assays, S. aureus. The data set is classed as cell-based, Staphylococcus aureus. The conditions noted are these: microdilutional or macrodilutional assays. On the procedure: as §3, §2
Data set [12] can be described thus: Isoelectric point. The data set is classed as physicochemical.

“Also recorded” adds a separate entry of the source. Like-named read-outs stand apart in the source and are kept apart here. Ends that are not written are not given here.

Turning to “^125I-AM: iodinated AM ligand (Phoenix Pharmaceuticals)”, the “binding of 125I-AM” value in [1] is on record as 2265 cpm; in [2], 25 cpm.
With Magainin [reference compound], the “antimicrobial activity, macrodilution, 6 hours” value in [3] (E. coli) is given as “moderate activity”. Also, in [3] (E. coli, 24 hours incubation), the “antimicrobial activity, macrodilution, 24 hours” value is reported as “significantly greater in antimicrobial activity than either AM or PAMP; also recorded: more potent than either AM”. In addition, the “optical clarity of bacterial suspension” value in data set [3] (macrodilution) is on record as “optically clear suspension of bacteria”. In data set [4], the “potency against C. albicans, comparative” value is “more potent than AM and PAMP”. In addition, in data set [5], the “growth inhibitory activity against E. coli, comparative” value is reported as “greater inhibitory activity”.
Regarding “TVQKLAHQIYQFTDKDKDNVAPRSKISPQGY-NH2 [PO72]”, in [6], the “activity against these pathogens” value is given as “little or no activity”. In addition, the “competition for 125I-AM binding” value in [7] is reported as “not competitively blocked”. For the same substance, the “effect on cAMP” value in data set [8] is “no effect”.
“Y-G-G-H-Q-I-Y-Q-F-T-D-K-D-NH2 (YGGHQIYQFTDKD-NH2) [PO71, ID; NO]”: the “activity against these pathogens” value in [6] is listed as “little or no activity”.
In the case of “Y-Y-W-N-K-W-A-L-S-R-NH2 (YYWNKWALSR-NH2) [PO70, ID; NO]”, the “activity against these pathogens” value in data set [6] is “little or no activity”.
With “ARLDVASEFRKKWNKWALSR-NH2 [PAMP-20, ARLDVASEFRKKWNKWALSR-NH2]”, the “antimicrobial activity, macrodilution, 6 hours” value in [3] (E. coli) is “greater activity”. In addition, the “competition for 125I-AM binding” value in data set [7] is “not competitively blocked”. Also, the “effect on cAMP” value in data set [8] is on record as “no effect”. Further, the “antimicrobial activity against P. aeruginosa, 24 hours versus 6 hours” value in data set [9] is listed as “greater antimicrobial activity”. Moreover, in data set [10], the “relative potency in inducing histamine release” value is on record as “twenty times more potent”. Moreover, the “antimicrobial effect against C. albicans” value in [4] is 79.7%±2.4. Moreover, in data set [4] (after 6 hours of incubation), the “activity against C. albicans” value is given as “activity”. Moreover, the “growth suppressive activity against S. aureus” value in [11] is on record as “ineffective; also recorded: no apparent growth suppressive activity”. The “activity against E. coli” value in data set [5] (after 6 hours of incubation) is on record as “activity”. Also, in [5], the “growth inhibitory activity against E. coli, comparative” value is given as “higher growth inhibitory activity than albumin”. Also, the isoelectric point in data set [12] is given as 10.1; in [12] (listed as PAMP), 11.1.

Values taken from patent US7939639B2, “Functional role of adrenomedullin (AM) and the gene related product (PAMP) in human pathology and physiology” (The United States of America as represented by the …, priority 1995, dated 2011).
